≈ marks a conversion by molar mass, not a printed value. Positions of bridges follow the written chain, without caps; N, C: chain ends. Residues, ends and D or L forms follow the SMILES beside them. Groups on a side chain read outwards from the residue. Chains are numbered I, II in the order given.
Key:
P. aeruginosa PA01 (WT) = assay type: cell-based, Pseudomonas aeruginosa; conditions: WT
Experimental: (§1) Antimicrobial activity was assayed against P. aeruginosa PA01 (WT), P. aeruginosa PT1482 (A-), PT1485 (A-B-), PT1149 (A-B-C-algC), PT331 (Z61) (LPS mutants), P. aeruginosa PEJ2.6, PEJ9.1, ZEM1.A, ZEM9.A (clinical isolates from Université de Genève/Centre Médical Universitaire), Burkholderia cenocepacia (B. ceno), Staphylococcus aureus (S. aureus, MRSA strain) and Acinetobacter baumannii (A. baum) (clinical isolates from Université de Genève/Centre Médical Universitaire). To determine the minimal inhibitory concentration (MIC), microdilution broth method was used. A colony of bacteria was grown in MH-medium overnight at 37° C. The samples were prepared as stock solutions of 8 mg mL^−1 in H2O, diluted to the beginning concentration of 32, 64, 128 or 256 μg/mL in 300 μL MH-medium, added to the first well of 96-well microtiterplate (TPP, untreated) and diluted serially by ½. The concentration of the bacteria was quantified by measuring absorbance at 600 nm and diluted to OD600=0.022 in MH-medium. The sample solutions (150 μL) were mixed with 4 μL diluted bacterial suspension with a final inoculation of about of 5×10^5 CFU. The plates were incubated at 37° C. until satisfactory growth (˜18 h). For each test, two columns of the plate were kept for sterility control (SC, broth only) and growth control (GC, broth with bacterial inoculums, no antibiotics). The minimal inhibitory concentration (MIC) was defined as the lowest concentration of the antimicrobial substance (peptide dendrimer) that inhibited visible growth of the tested bacteria with the unaided eye. For microbiological study Polymyxin was used as references.

[1] = system: P. aeruginosa PT1482 (A-), PT1485 (A-B-), PT1149 (A-B-C-algC), PT331 (Z61) (LPS mutants); assay type: cell-based, Pseudomonas aeruginosa; conditions: MH medium, 12-18 h
Experimental: as §1

[2] = system: Pseudomonas aeruginosa (strain PA01); test: microbe, parasite or virus in culture; assay type: cell-based
How it was run: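 P. aeruginosa PAO1 grown overnight in LB, diluted to OD600 0.001 and mixed with ⅔-step peptide dilutions, then incubated at 37 °C for 18–24 h. After MTT staining, the lowest concentration with no visible growth was read by eye as the MIC.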

[3] = system: P. aeruginosa PEJ2.6, PEJ9.1, ZEM1.A, ZEM9.A (clinical isolates); assay type: cell-based, Pseudomonas aeruginosa; conditions: PEJ2.6, PEJ9.1, ZEM1.A, ZEM9.A (clinical isolates)
Experimental: as §1
Ten of the most promising compounds (FIG. 5) were tested for their efficiency against four clinical isolates of P. aeruginosa (ZEM9.A, ZEM1.A, PEJ2.6, PEJ9.1), one S. aureus (COL, MRSA reference strain) and one A. baumannii strain. For the experiments in Genève the peptide dendrimers and reference compounds (polymyxin) were dissolved in PBS and the assay was carried out in Müller-Hinton (MH) broth with a two-fold dilution.

Acinetobacter baumannii = assay type: cell-based
How it was run: (§2)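 Broth microdilution in Müller-Hinton medium, two-fold serial dilutions from a starting 32–256 μg/mL, compounds dissolved in PBS; inoculum about 5×10^5 CFU, incubated 37° C ~18 h. MIC taken as lowest concentration with no visible growth by eye; polymyxin as reference.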

[4] = system: Staphylococcus aureus (COL, MRSA reference strain); assay type: cell-based; conditions: COL, reference strain
How it was run: as §2

[5] = system: Bacillus subtilis (strain BR151); assay type: cell-based; conditions: strain BR151
How it was run: (§3)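 Broth microdilution MIC in LB; overnight cultures diluted to OD600 0.001 and mixed 1:1 with ⅔-serially diluted samples (stock 1 mg mL^−1 in H2O), 37° C for 18-24 h. MTT (0.1%) added; MIC read by eye as lowest concentration inhibiting visible growth (yellow).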

[6] = system: Escherichia coli (strain DH5α); assay type: cell-based; conditions: DH5α
How it was run: as §3

male wistar rats = test: In-vivo toxicity study, single i.v. injection; set-up: species or system rat
Source text: 4-6 weeks old male wistar rats (weight range 200-500 g) were used in toxicity experiments. Rats were obtained from Zentrale Tierställe Bern (Department of Clinical Research from University of Bern) and housed 4 per cage. Each experimental group includes two rats. All procedures, care and handling of the animals were reviewed and approved by the Veterinärdienst of Kanton Bern, Schweiz and execute in collaboration with the group of Prof. Hugues Abriel from Department of Clinical Research from University of Bern.
Rats were anesthetized with 4% isoflurane and 1 L/min oxygen in an induction chamber. When the rats were sleeping they were transferred on a clinical drape and anesthetized with 1-2% isoflurane and 0.8 l/min oxygen via a mask. The tail was warmed up with warm water and disinfected with 70% ethanol. The intravenous (i.v.) injections into the tail vein included a single dose of the AMPD of 2 mg/kg rat in 500 μL PBS. Before injection each rat was weighted individually and the exact dosage was determined. All rats, including control groups with no injection and i.v. injection of 500 μL PBS, were monitored for their survival and behavior for two days.
The compounds MSt-112, a 3rd generation AMPD with KL motive, MSt-181 its D-enantiomer analogue, MSt-242, a the 3rd generation with RL motive, and MSt-114 with Tyr instead of Lys in the 3rd generation were used for in vivo experiments with male wistar rats to assess their toxicity. These compounds were selected due to their high potencies and high MHCs values, which are at least 10 times higher than their activities. Each compound (concentration of 2 mg/kg) was applied to two rats by intravenous injection into the tail vein to observe if the AMPDs are well tolerated or may cause adverse effects. The concentration used was approx. 5-10 times higher than the MICs. […] The behaviour of the rats was normal. […] Therefore it seems that rats tolerate AMPDs very well, without visible site effects or even casualties.

[7] = 5(6)-Carboxyfluorescein leakage from lipid vesicles; conditions: 10 mM TRIS, 107 mM NaCl, pH 7.4; peptide added at 50 s
Experimental: (§4) Preparation A thin lipid film was prepared by evaporating a solution of 25 mg Egg PC or Egg PG in 1 mL MeOH/CHCl3 1/1 on a rotary evaporator (rt) and then in vacuo overnight. The resulting film was hydrated with 1 mL buffer (50 mM CF, 10 mM TIRS, 10 mM NaCl, pH 7.4) for 30 min, subjected to freeze-thaw cycles (7×) and extrusion (15×) through a polycarbonate membrane (pore size 100 nm). Extravesicular components were removed by gel filtration (Sephadex G-50) with 10 mM TRIS, 107 mM NaCl, pH 7.4. Final conditions: ˜2.5 mM Egg PC or Egg PG; inside: 50 mM CF, 10 mM TIRS, 10 mM NaCl, pH 7.4; outside: 10 mM TRIS, 107 mM NaCl, pH 7.4.
(§5) Experiment Egg PC or Egg PG stock solutions (37.5 μL) were diluted with a buffer (10 mM TRIS, 107 mM NaCl, pH 7.4) and placed in a thermostated fluorescence cuvette (25° C.) and gently stirred (total volume in the cuvette ˜3000 μL; final lipid concentration ˜31.25 μM). CF efflux was monitored at λem 517 nm (λex 492 nm) as a function of time after addition of 20 μL of peptide dendrimer in buffer (10 mM TRIS, 107 mM NaCl, pH 7.4) with final concentrations of 1, 5, 7.5, 10, 15, 20, 25, 30 μg/mL at t=50 s and 1.2% trition X-100 (30 μL, 0.012% final concentration) at t=300 s. Fluorescence intensities were normalized to fractional emission intensity I(t) using I(t)=(It−I0)/(I∞−I0) where I0 It at peptide dendrimer addition, I∞=It at saturation of lysis.

[8] = as above; conditions: 10 mM TRIS, 107 mM NaCl, pH 7.4; peptide added at 50 s; remark: listed apart in the source
Experimental: as §4, §5
Bacterial membranes contain relatively large amounts of exposed anionic lipids, while the outer leaflet of the membranes of plants and animals is composed mainly of lipids with no net charge. The charge composition of such membranes can be mimicked with phospholipid vesicles. Large unilamellar vesicles (LUVs) composed of the neutral phospholipid with PC (phosphatidyl choline) or with PG (phosphatidyl glycerol) with negative charges were prepared encapsulating 5(6)-carboxyfluorescein (CF). […] The higher the concentration of MSt-112 the higher is the CF leakage (FIG. 6A). […] Overall the active AMPDs interact with the negatively charged membrane and release the CF.

[9] = system: Pseudomonas aeruginosa (strain PA01); assay type: cell-based; conditions: 25 μg/mL; 0, 1, 3, 6, 8, 24 h
Experimental: Cell viability was assayed against Pseudomonas aeruginosa (strain PA01). A colony of bacteria was grown in LB-medium overnight at 37° C. The concentration was quantified by measuring absorbance at 600 nm and diluted to OD600=0.1 (1×10^8 CFU/mL). The samples were prepared as stock solutions of 1 mg mL^−1 in H2O and diluted in LB to a concentration of 50 μg/mL in a 96-well microtiterplate (TPP, untreated). The sample solutions (50 μL) were mixed with the diluted bacterial suspension with an OD600 nm of 0.001 (50 μL). […] The plates were incubated at 37° C. for 1, 3, 6, 8 and 24 h. Each time point was assayed on a separate plate. For each test, two columns of the plate were kept for sterility control (SC, broth only) and growth control (GC, broth with bacterial inoculums, no antibiotics). After incubation 15 μL of WST-8 working solution (3.31 mg/mL WST-8 (Ochem Incorporation), 0.074 mg/mL PES (phenazine ethosulfate)) was added to each well and cells were incubated at 37° C. until GC had desired value. After the reaction took place, the final absorbance was read at 450 nm. For calculations, the value of the GC was set to 100% cell viability and the value of the negative control (no bacteria, SC) was set to 0% cell viability. […]
In order to determine the killing kinetics of AMPDs the amount of living bacteria was measured as a function of time after incubation with the AMPDs. […]

| Structure (SMILES) | MIC (MH) (P. aeruginosa PA01 (WT)) | MIC PAO1 (P. aeruginosa PA01 (WT)) | MIC PT1482 (A-) [1] | MIC PT1485 (AB-) [1] | MIC P. aeruginosa PAO1 ([2]; strain) | MIC P. aeruginosa MDR clinical isolate PEJ2.6 [3] | MIC P. aeruginosa MDR clinical isolate PEJ9.1 [3] | MIC P. aeruginosa MDR clinical isolate ZEM1A [3] | MIC P. aeruginosa MDR clinical isolate ZEM9A [3] | MIC A. baumannii ATCC19606 (Acinetobacter baumannii) | MIC S. aureus COL [4] | MIC B. subtilis BR151 [5] | MIC E. coli DH5α [6] | visible effects and behaviour after injection (male wistar rats; 2 mg/kg single i.v. dose into tail vein, two rats) | survival rate (male wistar rats; 2 mg/kg single i.v. dose, monitored 2 days) | MIC ([2]; Pseudomonas aeruginosa, PAO1, LB medium, serial 2/3 dilution, 37 °C, 18-24 h, read-out: MIC P. aeruginosa PAO1) | CF leakage from phosphatidylcholine LUVs [7] | CF leakage from phosphatidylglycerol LUVs [8] | killing kinetics (bacterial survival over 24 hours) [9] |
| --- | --- | --- | --- | --- | --- | --- | --- | --- | --- | --- | --- | --- | --- | --- | --- | --- | --- | --- | --- |
| CC(C)C[C@H](NC(=O)[C@H](CCCCN)NC(=O)[C@H](CCCCNC(=O)[C@H](CC(C)C)NC(=O)[C@H](CCCCN)NC(=O)[C@H](CCCCNC(=O)[C@H](CC(C)C)NC(=O)[C@H](CCCCN)NC(=O)[C@H](CCCCNC(=O)[C@H](CC(C)C)NC(=O)[C@@H](N)CCCCN)NC(=O)[C@H](CC(C)C)NC(=O)[C@@H](N)CCCCN)NC(=O)[C@H](CC(C)C)NC(=O)[C@H](CCCCN)NC(=O)[C@H](CCCCNC(=O)[C@H](CC(C)C)NC(=O)[C@@H](N)CCCCN)NC(=O)[C@H](CC(C)C)NC(=O)[C@@H](N)CCCCN)NC(=O)[C@H](CC(C)C)NC(=O)[C@H](CCCCN)NC(=O)[C@H](CCCCNC(=O)[C@H](CC(C)C)NC(=O)[C@H](CCCCN)NC(=O)[C@H](CCCCNC(=O)[C@H](CC(C)C)NC(=O)[C@@H](N)CCCCN)NC(=O)[C@H](CC(C)C)NC(=O)[C@@H](N)CCCCN)NC(=O)[C@H](CC(C)C)NC(=O)[C@H](CCCCN)NC(=O)[C@H](CCCCNC(=O)[C@H](CC(C)C)NC(=O)[C@@H](N)CCCCN)NC(=O)[C@H](CC(C)C)NC(=O)[C@@H](N)CCCCN)C(N)=O [MSt-112, (KL)8(KKL)4(KKL)2(KKL)] (I: H-KLK([Leu-Lys])KLKKLKKL-NH2 / II: H-KLK([Leu-Lys])KLKKL / III: H-KLK([Leu-Lys])KL / IV: H-KLK([Leu-Lys])KL; amide I:6-IV:C, I:9-II:C, II:6-III:C) | 4 µg/mL (≈ 0.882 µM) | 4 µg/mL (≈ 0.882 µM) | 4 µg/mL (≈ 0.882 µM) | 4 µg/mL (≈ 0.882 µM) | 2 µg/mL (≈ 0.441 µM) | 16 µg/mL (≈ 3.53 µM) | 64 µg/mL (≈ 14.1 µM) | 4 µg/mL (≈ 0.882 µM) | 32 to 64 µg/mL | 8 to 16 µg/mL | >64 µg/mL | 3 µg/mL (≈ 0.662 µM) | 4 µg/mL (≈ 0.882 µM) | No visible effect | 100% |  |  |  |  |
| NC[C@H]1O[C@H](O[C@H]2[C@H](O)[C@@H](O[C@H]3O[C@H](CO)[C@@H](O)[C@H](N)[C@H]3O)[C@H](N)C[C@@H]2N)[C@H](N)C[C@@H]1O [Tobramycin] |  |  |  |  |  |  |  |  |  |  |  |  |  |  |  | 0.5 µg/mL (≈ 1.07 µM) | no CF release | do not show release of CF | kill P. aeruginosa immediately |

Reference: patent US10336792B2, “Antimicrobial peptide dendrimers” (priority 2014, dated 2019)
